Laboratory results published in the supplement of paper PMC10307832.

Tests used:
Experiment in all cases: relative viability (nuclei count vs DMSO), 5 days (fraction); higher = more cells survive
[1] = compound: CN(C)C[C@@H]1CCn2cc(c3ccccc32)C2=C(C(=O)NC2=O)c2cn(c3ccccc23)CCO1 [Ruboxistaurin] + CS(=O)(=O)CCNCc1ccc(-c2ccc3ncnc(Nc4ccc(OCc5cccc(F)c5)c(Cl)c4)c3c2)o1 [Lapatinib] (partner 2 µM)
Summary of the method: (§1)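 Values are medians from duplicate plates. Each reflects relative viability, defined as the nuclei count of treated wells over that of vehicle wells. Lung cancer cell lines in 1536-well plates were pin-tool dosed one day after seeding with one drug alone or with a fixed anchor-drug dose plus five library-drug doses (not always all listed) in √10 steps, then fixed, stained and imaged at 4× after 5 days.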

[2] = compound: CN(C)C[C@@H]1CCn2cc(c3ccccc32)C2=C(C(=O)NC2=O)c2cn(c3ccccc23)CCO1 [Ruboxistaurin] + Nc1nc2[nH]cc(CCc3ccc(C(=O)N[C@@H](CCC(=O)O)C(=O)O)cc3)c2c(=O)[nH]1 [Pemetrexed] (partner 0.2 µM)
Summary of the method: as §1

[3] = compound: CN(C)C[C@@H]1CCn2cc(c3ccccc32)C2=C(C(=O)NC2=O)c2cn(c3ccccc23)CCO1 [Ruboxistaurin] + CC(C)C[C@H](NC(=O)[C@H](Cc1ccccc1)NC(=O)c1cnccn1)B(O)O [Bortezomib] (partner 0.002 µM)
Summary of the method: as §1

[4] = compound: CN(C)C[C@@H]1CCn2cc(c3ccccc32)C2=C(C(=O)NC2=O)c2cn(c3ccccc23)CCO1 [Ruboxistaurin] + CC(=O)c1c(C)c2cnc(Nc3ccc(N4CCNCC4)cn3)nc2n(C2CCCC2)c1=O [Palbociclib] (partner 0.5 µM)
Summary of the method: as §1

[5] = compound: CN(C)C[C@@H]1CCn2cc(c3ccccc32)C2=C(C(=O)NC2=O)c2cn(c3ccccc23)CCO1 [Ruboxistaurin] + CS(=O)(=O)N1CCN(Cc2cc3nc(-c4cccc5[nH]ncc45)nc(N4CCOCC4)c3s2)CC1 [Pictilisib] (partner 1 µM)
Summary of the method: as §1

Row | Cell Line | relative viability ([1]; first compound 0.08 µM) | relative viability ([1]; first compound 0.8 µM) | relative viability ([1]; first compound 2.53 µM) | relative viability ([1]; first compound 8 µM) | relative viability ([2]; first compound 0.08 µM) | relative viability ([2]; first compound 0.8 µM) | relative viability ([2]; first compound 2.53 µM) | relative viability ([2]; first compound 8 µM) | relative viability ([3]; first compound 0.08 µM) | relative viability ([3]; first compound 0.8 µM) | relative viability ([3]; first compound 2.53 µM) | relative viability ([3]; first compound 8 µM) | relative viability ([4]; first compound 0.08 µM) | relative viability ([4]; first compound 0.8 µM) | relative viability ([4]; first compound 2.53 µM) | relative viability ([4]; first compound 8 µM) | relative viability ([5]; first compound 0.08 µM) | relative viability ([5]; first compound 0.8 µM) | relative viability ([5]; first compound 2.53 µM) | relative viability ([5]; first compound 8 µM)
1 | NCI-H1651 | 0.828 | 0.697 | 0.843 | 0.717 | 0.612 | 0.586 | 0.585 | 0.528 | 0.975 | 0.877 | 0.942 | 0.958 | 0.528 | 0.482 | 0.531 | 0.494 | 0.63 | 0.531 | 0.502 | 0.624
2 | NCI-H1666 | 0.596 | 0.529 | 0.783 | 0.659 | 0.85 | 0.825 | 0.747 | 0.808 | 0.857 | 0.751 | 0.806 | 0.733 | 0.659 | 0.608 | 0.606 | 0.726 | 0.413 | 0.355 | 0.474 | 0.421
3 | NCI-H1734 | 1.1 | 0.984 | 1.11 | 0.445 | 0.425 | 0.394 | 0.4 | 0.4 | 1.01 | 0.781 | 1.06 | 0.816 | 0.354 | 0.328 | 0.367 | 0.312 | 0.471 | 0.398 | 0.46 | 0.352
4 | NCI-H1755 | 1.05 | 1 | 1.01 | 1.07 | 0.452 | 0.476 | 0.35 | 0.471 | 0.976 | 0.945 | 0.979 | 1.02 | 0.495 | 0.452 | 0.463 | 0.455 | 0.422 | 0.362 | 0.373 | 0.264
5 | NCI-H1792 | 0.903 | 0.892 | 0.916 | 0.933 | 0.845 | 0.659 | 0.749 | 0.584 | 0.995 | 0.928 | 0.915 | 1.03 | 0.632 | 0.617 | 0.645 | 0.669 | 0.258 | 0.231 | 0.246 | 0.233
